Laboratory results reported in US12336980B2, “Dosing regimen for a selective S1P1 receptor agonist” (Vanda Pharmaceuticals Inc., priority 2014, dated 2025).

Legend:
Assay type in all cases: in vivo, human
[1] = test system: circulating total lymphocyte count; assay: Total lymphocyte count by hemocytometry; conditions: for total lymphocyte count, mean percentage change from baseline (±SD): Day 3; for total lymphocyte count, decrease from baseline: Day 6
From the text: The enrolled subjects came to the study center for each treatment period on Day −2 and participated in a run-in (all study procedures performed without study drug administration) on Day −1. On Day 1, subjects were randomized to one of the two possible sequences of the two up-titration regimens A and B (ratio 1:1). On Day 1, all subjects received placebo; the first study drug administration (or its matching placebo) occurred on Day 2. Regimen A consisted of the novel up-titration regimen: ponesimod was administered once daily (o.d.) orally at a dose of 2 mg on Day 2 and Day 3, 3 mg on Day 4 and Day 5, 4 mg on Day 6 and Day 7, 5 mg on Day 8, 6 mg on Day 9, 7 mg on Day 10, 8 mg on Day 11, 9 mg on Day 12, 10 mg on Day 13 and Day 14, and 20 mg on Day 15. The reference regimen (regimen B) was based on previous studies (Olsson T. et al., Oral ponesimod in relapsing-remitting multiple sclerosis: a randomised phase II trial. J Neurol Neurosurg Psychiatry. 2014; 85 (11): 1198-1208; and Vaclavkova A. et al., Oral ponesimod in patients with chronic plaque psoriasis: a randomised, double-blind, placebo-controlled phase 2 trial. Lancet. 2014; 384 (9959): 2036-2045) and consisted of an o.d. oral administration of ponesimod at a dose of 10 mg for 7 days (i.e., from Day 2 to Day 8) and 20 mg on Day 9. From Day 10 to Day 15 subjects received o.d. the matching placebo. In the placebo group (1:1 sex ratio), subjects received placebo from Day 1 to Day 15. All treatments were administered at the same time in the morning (fasted condition) with approximately 240 mL of water. Blood samples of about 3 mL were collected in ethylene di-amine tetra acetic acid tubes at pre-dose and 3 h after study drug administration from Day 1 to Day 15 in each treatment period. After centrifugation, plasma was transferred into a polypropylene tube and stored at −21° C. (±5° C.) pending analysis. Plasma concentrations of ponesimod were determined using a validated liquid chromatography coupled to tandem mass spectrometry assay with a lower limit of quantification of 1 ng/mL (Brossard P. et al., Pharmacokinetics and pharmacodynamics of ponesimod, a selective S1 P1 receptor modulator, in the first-in-human study. British journal of clinical pharmacology. 2013; 76 (6): 888-896). Trough samples were taken on Day −1, Day 3, Day 6, Day 9, Day 12, and Day 15 of each treatment period and at EOFP and EOS to assess total lymphocyte count by hemocytometry. Cardiodynamic and pharmacodynamic data are expressed as mean±SD. Repeated measure one-way ANOVAs followed by Tukey's multiple-comparisons tests were used to perform inter-group (i.e., placebo vs. regimen A vs. regimen B) comparisons. Student's t-tests were employed to perform intra-group (baseline vs. treatment) comparisons. Differences were considered to be statistically significant at p <0.05. SAS® version 9.2 (SAS Institute, Cary, NC, USA) was used for the statistical analysis and descriptive statistics of clinical data.

heart rate in humans = assay: Heart rate reduction in humans after administration (background finding); conditions: transient heart rate reduction
[2] = test system: peripheral blood lymphocytes; assay: Repeated daily oral dosing, number of peripheral blood lymphocytes (background finding); conditions: repeated daily oral dosing of 5 mg or more to humans

CCC/N=C1\S/C(=C\c2ccc(OC[C@H](O)CO)c(Cl)c2)C(=O)N1c1ccccc1C [ponesimod, (R)-5-[3-chloro-4-(2,3-dihydroxy-propoxy)-benz[Z]ylidene]-2-([Z]-propylimino)-3-o-tolyl-thiazolidin-4-one] was tested, and the “recovery of individual total lymphocyte count” value ([1]; at EOFP and EOS, normal range i.e. 80% of baseline) was “returned to within the normal range”, the “total lymphocyte count, mean percentage change from baseline (±SD)” value ([1]; regimen A) was −11.6±10.2% and the “total lymphocyte count, decrease from baseline” value ([1]; regimen A) was −15.0±14.4%. For the same molecule, the “total lymphocyte count, decrease following the last dose of 10 mg” value ([1]; regimen A, Day 15 before administration of the dose of 20 mg) was −50.8±12.1%, the “total lymphocyte count, mean percentage change from baseline (±SD)” value ([1]; regimen B) was −28.9±12.2% and the “total lymphocyte count, decrease from baseline” value ([1]; regimen B) was −46.5±12.3%. The “total lymphocyte count, decrease following the last dose of 10 mg” value ([1]; regimen B, Day 9 before administration of the dose of 20 mg) was −52.3±11.0%, the “time of maximal heart rate reducing effects after administration” value (heart rate in humans) was 1 to 3 h and the “reduction in the number of peripheral blood lymphocytes” value [2] was “consistent, sustained, and dose-dependent reduction”.
